Reference: patent US9469647B2, “Salt crystals” (INTRA-CELLULAR THERAPIES, INC., priority 2012, dated 2016)
Read-outs that look alike come from different tables or passages of the source.

What was measured:
[1] = Solubility study of phosphate salt crystals in aqueous media at pH 1.2-6.8; type: physicochemical; settings: for solubility at 1 hr / solubility at 16 hr: thermodynamic from solid; for solubility at 1 hr: read-out: Solubility after 1 hr; for solubility at 16 hr: read-out: Solubility after 16 hrs
Description: The (6aR,9aS)-5,6a,7,8,9,9a-hexahydro-5-methyl-3-(phenylamino)-2-((4-(6-fluoropyridin-2-yl)phenyl)methyl)-cyclopent[4,5]imidazo[1,2-a]pyrazolo[4,3-e]pyrimidin-4(2H)-one mono-phosphate salt crystals are assessed for its aqueous solubility at lower pH. The (amorphous) free base is also tested for reference at a limited range of pH.
Phosphate (buffer) solutions are made at 50 mM concentration and the pH is adjusted to pH 2, 3, 4, 5 or 6.8 using either 3M phosphoric acid (lower pH) or 3M NaOH (higher pH). 0.1N HCl is also used, pH is measured as 1.2.
20 mg of the (6aR,9aS)-5,6a,7,8,9,9a-hexahydro-5-methyl-3-(phenylamino)-2-((4-(6-fluoropyridin-2-yl)phenyl)methyl)-cyclopent[4,5]imidazo[1,2-a]pyrazolo[4,3-e]pyrimidin-4(2H)-one mono-phosphate salt crystals or free base is weighed into a glass vial, and 2 ml of the relevant aqueous media is added. The vials are shaken. After 1 hr, a sample (˜1 ml) is removed via syringe, and filtered through a syringe filter (0.2 micron) into an HPLC vial. After shaking the suspensions for 16 hours, a second sample is taken. All samples are then diluted with the HPLC diluent by a factor of 1000 (except the pH 6.8 samples which are diluted ×10), and re-analysed by HPLC. In cases where the entire solid dissolved, the 2 ml solution is added to another 20 mg salt or free base.

[2] = USP2 dissolution study at pH 1 and 4.5; type: physicochemical
Text: The rate of dissolution is an important factor in the bioavailability of an active pharmaceutical ingredient (API). This is commonly tested using standard conditions e.g. USP 2 dissolution testing. The pH of the aqueous media used can be correlated with the pH of the stomach (low pH −1-2) and the intestines (intermediate acidic pH −4-6). Therefore pH 1 (0.1 M HCl) and a citrate buffer at pH 4.5 (0.2M) are used for the dissolution testing.
The (6aR,9aS)-5,6a,7,8,9,9a-hexahydro-5-methyl-3-(phenylamino)-2-((4-(6-fluoropyridin-2-yl)phenyl)methyl)-cyclopent[4,5]imidazo[1,2-a]pyrazolo[4,3-e]pyrimidin-4(2H)-one mono-phosphate salt crystals are weighed (×4) into size 0 white gelatine capsules at 119 mg per capsule (equivalent to 100 mg API). The (6aR,9aS)-5,6a,7,8,9,9a-hexahydro-5-methyl-3-(phenylamino)-2-((4-(6-fluoropyridin-2-yl)phenyl)methyl)-cyclopent[4,5]imidazo-[1,2-a]pyrazolo[4,3-e]pyrimidin-4(2H)-one is also weighed (×2) into white gelatine capsules at 100 mg per capsule. These capsules are then dissolved using the standard set up of the USP 2 dissolution equipment i.e., in 1000 mL of the relevant aqueous media, stirrers set at 50 rpm, capsules placed in metal coils to weigh them down, media equilibrated with the water bath set at 37″C. Analytical samples are removed via canula, with an initial filter on the canula and secondary filtering through 0.2 micron syringe filters. The samples are then analysed without dilution by HPLC for API content. Calibration for HPLC is run using both the free base API and the phosphate salt.

[3] = Bridging study of monophosphate salt and free base in dog (plasma pharmacokinetics); type: in vivo; settings: po, 40 mg/kg; for half-life: read-out: E Half-life (converted)
Description: The mono-phosphate salt of (6aR,9aS)-5,6a,7,8,9,9a-hexahydro-5-methyl-3-(phenylamino)-2-((4-(6-fluoropyridin-2-yl)phenyl)methyl)-cyclopent[4,5]imidazo[1,2-a]pyrazolo[4,3-e]pyrimidin-4(2H)-one is administered to dogs at a dose of 40 mg/kg in gelatin capsules or via oral gavage in a vehicle formulation of HCl-Citrate, pH 3.5, 0.5% methylcellulose in water. […] The analysis of drug concentration in plasma samples collected is analyzed.
The pharmacokinetic (PK) parameters are determined from the plasma concentration versus time data by non-compartmental methods with uniform weighting (PK solutions 2.0™, Summit Research Services, Montrose, Colo.). The maximum observed concentration (Cmax) and the time of the maximum observed concentration (tmax) are obtained from the bioanalytical raw data. The area-under-the-plasma concentration-time curve from time zero to the time of the last measurable sample (AUC_) is calculated by the trapezoidal rule.

[4] = tested on: phosphodiesterase 1 (PDE 1); settings: statement referring to WO 2009/075784; cited from earlier work
[5] = 50 mM phosphate buffer, pH 2, aqueous buffer, pH 2, 50 mM phosphate buffer
[6] = 0.1N HCl, pH 1.2, simulated gastric fluid, pH 1.2 (0.1N HCl)
[7] = both sexes, Mean (M-5001 to F-5102), oral gavage
[8] = female, dog F-5101, oral gavage
[9] = female, dog F-5102, oral gavage

CN1C(=O)c2c(nn(Cc3ccc(-c4cccc(F)n4)cc3)c2Nc2ccccc2)N2C1=N[C@@H]1CCC[C@@H]12 [Free base API (amorphous), (6aR,9aS)-5,6a,7,8,9,9a-hexahydro-5-methyl-3-(phenylamino)-2-((4-(6-fluoropyridin-2-yl)phenyl)methyl)-cyclopent[4,5]imidazo[1,2-a]pyrazolo[4,3-e]pyrimidin-4(2H)-one]
solubility at 1 hr [1, 5]: > 20 mg/mL
solubility at 16 hr [1, 5]: > 20 mg/mL
solubility at 1 hr [1, 6]: > 20 mg/mL
solubility at 16 hr [1, 6]: > 20 mg/mL
Solubility after 1 hr ([1]; pH 3, 50 mM phosphate buffer): 2.5 mg/mL
Solubility after 16 hrs ([1]; pH 3, 50 mM phosphate buffer): 2.2 mg/mL
solubility at low pH in dissolution study ([2]; pH 1 (0.1 M HCl), 37 C): good solubility
time to full dissolution ([2]; pH 1, about 0.1 mg/mL (API equivalent), capsule in 1000 mL, 50 rpm): approximately 15 minutes
AUC [3, 7]: 19200 ng·h/mL
Cmax [3, 7]: 1020 ng/mL
Tmax [3, 7]: 4 h
half-life [3, 7]: 10.8 h
AUC [3, 8]: 11500 ng·h/mL
Cmax [3, 8]: 674 ng/mL
Tmax [3, 8]: 8 h
half-life [3, 8]: 6.7 h
AUC [3, 9]: 14300 ng·h/mL
Cmax [3, 9]: 2000 ng/mL
Tmax [3, 9]: 2 h
half-life [3, 9]: 5.5 h
AUC ([3]; male, dog M-5001, oral gavage): 20100 ng·h/mL
Cmax ([3]; male, dog M-5001, oral gavage): 902 ng/mL
Tmax ([3]; male, dog M-5001, oral gavage): 4 h
half-life ([3]; male, dog M-5001, oral gavage): 14.8 h
AUC ([3]; male, dog M-5002, oral gavage): 36500 ng·h/mL
Cmax ([3]; male, dog M-5002, oral gavage): 1320 ng/mL
Tmax ([3]; male, dog M-5002, oral gavage): 4 h
half-life ([3]; male, dog M-5002, oral gavage): 16.7 h
PDE1 inhibition (potency and selectivity in words) [4]: potent and selective phosphodiesterase 1 (PDE 1) inhibitor
